By IC50 is commonly meant the concentration at which inhibition is half-maximal.

Where a name gives a salt, the structure may show the parent alone.

The assay addresses T1, recombinant sEH (Homo sapiens, UniProt P34913).
T1 construct: made in house; host or cells: Sf9 insect cells
T1 sequence (P34913 1-555): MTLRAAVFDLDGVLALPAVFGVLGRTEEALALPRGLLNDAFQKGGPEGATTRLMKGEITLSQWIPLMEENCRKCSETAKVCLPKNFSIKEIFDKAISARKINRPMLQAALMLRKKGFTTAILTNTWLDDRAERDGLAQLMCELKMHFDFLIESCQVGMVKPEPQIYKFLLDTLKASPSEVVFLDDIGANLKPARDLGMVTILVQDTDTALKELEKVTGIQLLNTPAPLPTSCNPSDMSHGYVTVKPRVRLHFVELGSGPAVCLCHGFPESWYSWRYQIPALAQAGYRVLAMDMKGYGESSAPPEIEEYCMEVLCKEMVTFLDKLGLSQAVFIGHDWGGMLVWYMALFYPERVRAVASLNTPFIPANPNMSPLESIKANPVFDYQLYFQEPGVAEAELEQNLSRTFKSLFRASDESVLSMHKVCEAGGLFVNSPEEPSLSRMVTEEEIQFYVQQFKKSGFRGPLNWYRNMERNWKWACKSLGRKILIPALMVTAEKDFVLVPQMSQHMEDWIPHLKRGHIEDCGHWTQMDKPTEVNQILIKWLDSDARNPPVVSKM
The assay is described as follows: biochemical screening assay for inhibition of soluble epoxide hydrolase (fluorometric, Phome substrate). A digest of the protocol:
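Human sEH from Sf9 cells (2 nM final) was pre-incubated 15 min at 30 °C with compound (0.0001–10 μM), then reacted 60 min at 30 °C with 5 μM Phome in 25 mM Hepes/0.01% albumin. Fluorescence of released 6-methoxy-2-naphthaldehyde was read before substrate and at end; IC50 from % inhibition.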
With `Cc1ncccc1O[C@H]1CO[C@H]2[C@@H]1OC[C@@H]2NC(=O)NC1CCCN(S(C)(=O)=O)C1` (stereo partly drawn) [Example 86, 1-(1-Methanesulfonyl-piperidin-3-yl)-3-[(3S,3aR,6S,6aS)-6-(2-methyl-pyridin-3-yloxy)-hexahydro-furo[3,2-b]furan-3-yl]-urea], the IC50 was 41 nM.

Consider `CC1(C)CC(=O)c2cc(O[C@H]3CO[C@H]4[C@@H]3OC[C@@H]4NC(=O)NC3CCCCC3)ccc2O1` [Example 114, 1-Cyclohexyl-3-[(3S,3aR,6S,6aS)-6-(2,2-dimethyl-4-oxo-chroman-6-yloxy)-hexahydro-furo[3,2-b]furan-3-yl]-urea], for which the IC50 is 4 nM.

In the case of `O=C(NC1CCCCC1)N[C@H]1CO[C@H]2[C@@H]1OC[C@@H]2Oc1cc(Br)ccc1Cl` [Example 147, 1-[(3S,3aR,6S,6aS)-6-(5-Bromo-2-chloro-phenoxy)-hexahydro-furo[3,2-b]furan-3-yl]-3-cyclohexyl-urea], the IC50 is 2 nM.

In the case of `CC(=O)Nc1ccc(O[C@H]2CO[C@H]3[C@@H]2OC[C@@H]3NC(=O)NC2CCCCC2)cc1` [Example 113, N-{4-[(3S,3aS,6S,6aR)-6-(3-Cyclohexyl-ureido)-hexahydro-furo[3,2-b]furan-3-yloxy]-phenyl}-acetamide], the IC50 was determined as 3 nM.

Consider `O=C(NC1CCCCC1)N[C@H]1CO[C@H]2[C@@H]1OC[C@@H]2Sc1ncc[nH]1` [Example 48, 1-Cyclohexyl-3-[(3S,3aR,6S,6aS)-6-(1H-imidazol-2-ylsulfanyl)-hexa-hydro-furo[3,2-b]furan-3-yl]-urea], for which the IC50 is 11 nM.

Consider `Cc1cccc(NC(=O)N[C@H]2CO[C@@H]3[C@@H]2OC[C@H]3C#Cc2ccccc2)c1` [Example 289, 1-[(3S,3aR,6R)-6-((S)-Phenylethynyl)-hexahydro-furo[3,2-b]furan-3-yl]-3-m-tolyl-urea], for which the IC50 was 35 nM.

As for `O=C(NC1CCCCC1)N[C@H]1CO[C@H]2[C@@H]1OC[C@@H]2Oc1cccn2ccnc12` [Example 130, 1-Cyclohexyl-3-[(3S,3aR,6S,6aS)-6-(imidazo[1,2-a]pyridin-8-yloxy)-hexa-hydro-furo[3,2-b]furan-3-yl]-urea], the IC50 amounted to 38 nM.

As for `O=C(NC1CCN(C(=O)C(F)(F)F)CC1)N[C@H]1CO[C@H]2[C@@H]1OC[C@@H]2Oc1ccc(F)cc1` [Example 157, 1-[(3S,3aR,6S,6aS)-6-(4-Fluoro-phenoxy)-hexahydro-furo[3,2-b]furan-3-yl]-3-[1-(2,2,2-trifluoro-acetyl)-piperidin-4-yl]-urea], the IC50 was 11 nM.

As for `Cc1ncccc1O[C@H]1CO[C@H]2[C@@H]1OC[C@@H]2NC(=O)NC1CCCN(C(=O)C2CC2)C1` (stereo partly drawn) [Example 85, 1-(1-Cyclopropanecarbonyl-piperidin-3-yl)-3-[(3S,3aR,6S,6aS)-6-(2-methyl-pyridin-3-yloxy)-hexahydro-furo[3,2-b]furan-3-yl]-urea], the IC50 was determined as 20 nM.

With `NC(=O)c1cccc(O[C@H]2CO[C@H]3[C@@H]2OC[C@@H]3NC(=O)NC2CCCCC2)c1` [Example 143, 3-[(3S,3aS,6S,6aR)-6-(3-Cyclohexyl-ureido)-hexahydro-furo[3,2-b]furan-3-yloxy]-benzamide], the half-maximal inhibitory concentration (IC50) was determined as 6 nM.

For `Cc1ncccc1O[C@H]1CO[C@H]2[C@@H]1OC[C@@H]2NC(=O)NCc1cnn(C)c1` [Example 192, 1-(1-Methyl-1H-pyrazol-4-ylmethyl)-3-[(3S,3aR,6S,6aS)-6-(2-methyl-pyridin-3-yloxy)-hexahydro-furo[3,2-b]furan-3-yl]-urea], the IC50 was 1730 nM.

For the molecule `Cc1ncccc1O[C@H]1CO[C@H]2[C@@H]1OC[C@@H]2NC(=O)NC1CCCCC1C` (stereo partly drawn) [Example 259, 1-(2-Methyl-cyclohexyl)-3-[(3S,3aR,6S,6aS)-6-(2-methyl-pyridin-3-yloxy)-hexahydro-furo[3,2-b]furan-3-yl]-urea], the IC50 stood at 5 nM.

Turning to `O=C(Nc1ccc(Cl)c(Cl)c1)NC1COC2C(CCc3ccccc3)COC12` [Example 358, 1-(3,4-Dichloro-phenyl)-3-[(3S,3aR,6R)-6-((S)-phenethyl)-hexahydro-furo[3,2-b]furan-3-yl]-urea], the IC50 amounted to 22 nM.

In the case of `O=C(NCc1ccc(F)cc1)NC1COC2C(C=Cc3ccccc3)COC12` [Example 325, 1-(4-Fluoro-benzyl)-3-[(3S,3aR,6R)-6-((S)-(Z)-styryl)-hexahydro-furo[3,2-b]furan-3-yl]-urea], the IC50 was 75 nM.

Consider `COc1cccc(CNC(=O)N[C@H]2CO[C@H]3[C@@H]2OC[C@@H]3Oc2cccnc2C)n1` [Example 202, 1-(6-Methoxy-pyridin-2-ylmethyl)-3-[(3S,3aR,6S,6aS)-6-(2-methyl-pyridin-3-yloxy)-hexahydro-furo[3,2-b]furan-3-yl]-urea], for which the IC50 came out at 345 nM.

For `COCC(NC(=O)N[C@H]1CO[C@H]2[C@@H]1OC[C@@H]2Oc1cccnc1C)c1ccnn1C` (stereo partly drawn) [Example 211, 1-[2-Methoxy-1-(2-methyl-2H-pyrazol-3-yl)-ethyl]-3-[(3S,3aR,6S,6aS)-6-(2-methyl-pyridin-3-yloxy)-hexahydro-furo[3,2-b]furan-3-yl]-urea], the IC50 was found to be 1080 nM.

As to `CCCCOc1ccc(NC(=O)NC2COC3C(C#N)COC23)cc1` (stereo not drawn) [Example 380], the IC50 is 304 nM.

In the case of `O=C(NC1CCCCC1)N[C@H]1CO[C@H]2[C@@H]1OC[C@@H]2Oc1ccc(C(=O)N2CCOCC2)cc1` [Example 120, 1-Cyclohexyl-3-{(3S,3aR,6S,6aS)-6-[4-(morpholine-4-carbonyl)-phenoxy]-hexahydro-furo[3,2-b]furan-3-yl}-urea], the IC50 is 7 nM.

Take `Cc1ncccc1O[C@H]1CO[C@H]2[C@@H]1OC[C@@H]2NC(=O)NCC1COC(C)(C)O1` (stereo partly drawn) [Example 191, 1-(2,2-Dimethyl-[1,3]dioxolan-4-ylmethyl)-3-[(3S,3aR,6S,6aS)-6-(2-methyl-pyridin-3-yloxy)-hexahydro-furo[3,2-b]furan-3-yl]-urea]: the IC50 came out at 489 nM.

As for `O=C(NC1CCCCC1)N[C@H]1CO[C@H]2[C@@H]1OC[C@@H]2Oc1cccc(Oc2ccccn2)c1` [Example 127, 1-Cyclohexyl-3-{(3S,3aR,6S,6aS)-6-[3-(pyridin-2-yloxy)-phenoxy]-hexa-hydro-furo[3,2-b]furan-3-yl}-urea], the IC50 stood at 7 nM.

On to `O=C(O)CC[C@H]1CO[C@H]2[C@@H]1OC[C@@H]2NC(=O)NC1CCCCC1` [Example 377, 3-[(3S,3aR,6S,6aR)-6-(3-cyclohexyl-ureido)-hexahydro-furo[3,2-b]furan-3-yl]-propionic acid], for which the IC50 was 2940 nM.

Turning to `Cc1ncccc1O[C@H]1CO[C@H]2[C@@H]1OC[C@@H]2NC(=O)NC1CCC(C(C)(C)C)CC1` (stereo partly drawn) [Example 260, 1-(4-tert-Butyl-cyclohexyl)-3-[(3S,3aR,6S,6aS)-6-(2-methyl-pyridin-3-yloxy)-hexahydro-furo[3,2-b]furan-3-yl]-urea], the IC50 was 8 nM.

On to `Cc1ncccc1O[C@H]1CO[C@H]2[C@@H]1OC[C@@H]2NC(=O)N[C@H]1CC[C@H](C)CC1` [Example 267, 1-(trans-4-Methyl-cyclohexyl)-3-[(3S,3aR,6S,6aS)-6-(2-methyl-pyridin-3-yloxy)-hexahydro-furo[3,2-b]furan-3-yl]-urea], for which the IC50 was 2 nM.

For the molecule `O=C(NC1CCCCC1)N[C@H]1CO[C@H]2[C@@H]1OC[C@@H]2Oc1cccc(C2CCNCC2)c1` [Example 108, 1-Cyclohexyl-3-[(3S,3aR,6S,6aS)-6-(3-piperidin-4-yl-phenoxy)-hexahydro-furo[3,2-b]furan-3-yl]-urea; trifluoroacetate], the half-inhibitory concentration (IC50) came to 23 nM.

(Values after patent US9540391B2, “Isomannide derivatives as inhibitors of soluble epoxide hydrolase” (SANOFI, priority 2013, dated 2017).)
